For orientation: mortality means the share of the test organisms that died.

Where two headings read alike, the source gives them in different places.

This is an account of results in US4390547A, “2,2-Dimethyl-3-(substituted ethyl)cyclopropane carboxylate pesticidal compositions and methods” (priority 1981, dated 1983).

The subject of data set [1] is guppies. Put plainly: Fish toxicity test (Test Example 4). As to conditions: concentration killing 50% of female guppies during 48 hours, 20° C.; [Mixture] = cis/trans 50/50. The data set is classed as in vivo. The protocol:
The mixture was stirred well to prepare a test water. Ten female guppies from 3 to 4 months of age were released into the test water and maintained at 20° C. The concentration of the test compound at which 50% of the guppies were killed during the ensuring 48 hours was determined. [This concentration is referred to as TLm (medium tolerance limit, ppm)].
A rank corresponds to TLm of not less than 10 ppm.
B rank corresponds to TLm of 0.5-10 ppm.
C rank corresponds to TLm of not more than 0.5 ppm.

Data set [2] is described as follows: Light stability test (Test Example 3). The settings on record: glass plate, uv light. It counts as physicochemical. The method, then: Into 2.0 ml of acetone were dissolved 80 mg of each test compound. A 5 μl portion of the solution was taken and spread on a glass plate (Micro Standard Cover Glass, 18 m/m No. 1, 200 pcs, Matsunami Glass Ind., Ltd.) and the acetone was evaporated. The specimen was exposed to ultraviolet light from a fluorescent lamp (Tokyo Shibaura Electric Co., Ltd., FL20BL, glow-type, 100 V, 24.5 W, wavelength=3600 A) which was fixed just above the specimen at a distance of 11 cm at a temperature of 31°-35° C. for a predetermined exposure time. The test liquid was washed away with 1.0 ml of methanol containing 0.04% of dioctyl phthalate as an internal reference and high-speed liquid chromatography was carried out on the washings to determine the residual amount of the test compound.

The subject of data set [3] is housefly (Musca domestica). The data set can be described thus: Mortality test against houseflies by topical application (Test Example 1). The data set is classed as in vivo. The settings on record: 24 h. The protocol: Each test compound was accurately weighed and a 1% solution and an 0.1% solution of the sample in acetone were prepared. A 1 μl portion of either of the above solutions was micropipetted onto the thoracic dorsal part of each female adult housefly (Musca domestica) under ether anaesthesia and the fly was released in a high-walled dish together with feed. The dish was covered with a metal-wire net and maintained at 25° C. After 24 hours, the test flies were inspected for deaths and the mortality (%) was calculated. Thirty test flies were used per concentration group.

For data set [4], the system named is houseflies (Musca domestica). The data set can be described thus: Mortality test against houseflies by the settling mist method (Utility Examples 2 and 3). It counts as in vivo. As to conditions: cis/trans 50/50, 24 hours. The protocol: 0.2 part of each of Compounds (1) to (38) was prepared and 0.8 part of piperonyl butoxide was added to each of them. To this mixture was added a sufficient amount of kerosene to make 100 parts, followed by stirring. By this procedure there was obtained an oil preparation of each Compound.
To 0.1 part of each of Compounds (1) to (38) was added 0.08 part of permethrin, followed by the addition of a sufficient amount of kerosene to make 100 parts. The mixture was stirred to obtain an oil preparation of each compound.
By the settling mist method, a mortality test against houseflies, (Musca domestica) was carried out using the oil preparations obtained according to Formulation Example 1 from Compounds (1), (5), (7), (9), (11) and (15) [Each compound is a mixture of cis- and trans-isomer in a ratio 50/50]. After 24 hours, the flies were examined for deaths. The mortality (%) was not less than 90% for each of Compounds (1), (5), (7), (9), (11) and (15).
By the settling mist method, a mortality test against houseflies was carried out using the oil preparations obtained in Formulation Example 3 from Compounds (1), (5), (7), (9), (11), (12), (15), (17) and (28) [Each compound is a mixture of cis- and trans-isomer in a ratio 50/50]. After 24 hours, the flies were examined for deaths. The mortality (%) was not less than 90% for each of Compounds (1), (5), (7), (9), (11), (12), (15), (17) and (28).

Data set [5] relates to green rice leafhoppers. The data set can be described thus: Mortality of green rice leafhoppers on sprayed rice seedlings (Utility Example 1). The settings on record: green rice leafhopper, in vivo, 24 h. The protocol: To 30 parts of each of Compounds (1) to (38) were added 50 parts of xylene and 20 parts of Sorpol SM-200 (a surfactant, trademark of Toho Chemical Co., Ltd.). The mixture was stirred well and dissolved to obtain a 30% emulsifiable concentrate.
The emulsifiable concentrate prepared from Compounds (7), (11), (12), (15), (17), (21) and (22) [Each compound is a mixture of cis- and trans-isomer in a ratio of 50/50] in Formulation Example 5 were each diluted 300-fold with water. Then, each of the dilutions was sprayed over rice seedlings 25 days after sowing at the rate of 10 ml/pot. The pot was covered with a wire net and 15 green rice leafhoppers were released under the net. After 24 hours, the leafhoppers were examined for deaths. The mortality (%) was not less than 90% for each of Compounds (7), (11), (12), (15), (17), (21) and (22).

[6] abbreviates: oil preparation of Formulation Example 1 (0.2 part compound + 0.8 part piperonyl butoxide).
Where [7] appears, read: oil preparation of Formulation Example 3 (0.1 part compound + 0.08 part permethrin).
Where [8] appears, read: exposure time 3.5 hours, ultraviolet light 3600 A, 31°-35° C., [Mixture] = cis/trans 50/50, read-out: Residue (%).
Where [9] appears, read: exposure time 3 days, ultraviolet light 3600 A, 31°-35° C., [Mixture] = cis/trans 50/50, read-out: Residue (%).

Turning to `CC1(C)C(C=C(Cl)Cl)C1C(=O)OCc1cccc(Oc2ccccc2)c1` (mixture of isomers) [Permethrin, 3-phenoxybenzyl(+)-cis,trans-2,2-dimethyl-3-(2,2-dichlorovinyl)cyclopropanecarboxylate, reference compound], the “TLm (medium tolerance limit)” value in data set [1] is listed as “C (C rank corresponds to TLm of not more than 0.5 ppm.)”.

Turning to `CC1(C)[C@H](C(=O)OCc2cccc(Oc3ccccc3)c2)[C@@H]1CC(Cl)(Cl)Cl` (relative stereo) [(1) [Cis-isomer], 3-Phenoxybenzyl 2,2-dimethyl-3-(2,2,2-trichloroethyl)cyclopropanecarboxylate], in data set [2], the remaining at 3.5 h came out at 97%, the remaining at 72 h came out at 91% and the remaining at 120 h came to 85%.

In data set [3], `CC1(C)[C@H](CC(Cl)(Cl)Cl)[C@H]1C(=O)OC(C#N)c1cccc(Oc2ccccc2)c1` (relative stereo) [(7) [Trans-isomer], 3-Phenoxy-α-cyanobenzyl 2,2-dimethyl-3-(2,2,2-trichloroethyl)cyclopropanecarboxylate] had a mortality at 1 µg/fly of 96.7% and a mortality at 10 µg/fly of 100%.

Regarding `CC1(C)C(CC(Cl)(Cl)Cl)C1C(=O)OCc1cccc(Oc2ccccc2)c1` (stereo not shown) [(1), 3-Phenoxybenzyl 2,2-dimethyl-3-(2,2,2-trichloroethyl)cyclopropanecarboxylate], the “mortality (%)” value in data set [4] (setting [6]) and in data set [4] (setting [7]) was “not less than 90%” throughout.

In data set [2], `CC1(C)C(CC(Cl)(Cl)Cl)C1C(=O)OC(C#N)c1cccc(Oc2ccccc2)c1` (stereo not drawn) [(7) [Mixture], 3-Phenoxy-α-cyanobenzyl 2,2-dimethyl-3-(2,2,2-trichloroethyl)cyclopropanecarboxylate] displayed a remaining at 3.5 h of 100%, a remaining at 72 h of 84% and a remaining at 120 h of 75%.

For the compound `C#CC(OC(=O)C1C(CC(Cl)(Cl)Cl)C1(C)C)c1cccc(Oc2ccccc2)c1` (stereo not drawn) [(11) [Mixture], 3-Phenoxy-α-ethynylbenzyl 2,2-dimethyl-3-(2,2,2-trichloroethyl)cyclopropanecarboxylate], in data set [2], the remaining at 3.5 h was 100%, the remaining at 72 h came to 71% and the remaining at 120 h was 65%.

As for `CC1(C)C(CC(Cl)(Cl)Cl)C1C(=O)OC(C#N)c1cccc(Oc2ccc(Cl)cc2)c1` (stereo not drawn) [(15) [Mixture], 3-(4-Chlorophenoxy)-α-cyanobenzyl 2,2-dimethyl-3-(2,2,2-trichloroethyl)cyclopropanecarboxylate], in data set [2], the remaining at 3.5 h turned out to be 100%, the remaining at 72 h was 93% and the remaining at 120 h amounted to 96%.

Consider `CC1(C)C(CC(Cl)(Cl)Cl)C1C(=O)OC(C#N)c1cccc(Oc2ccc(Br)cc2)c1` (stereo not drawn) [(17), 3-(4-Bromophenoxy)-α-cyanobenzyl 2,2-dimethyl-3-(2,2,2-trichloroethyl)cyclopropanecarboxylate], for which, in data set [4] (setting [7]), the “mortality (%)” value is given as “not less than 90%”.

Turning to `C#CC(OC(=O)C1C(CC(Cl)(Cl)Cl)C1(C)C)c1cccc(Oc2ccc(Cl)cc2)c1` (stereo not drawn) [(21) [Mixture], 3-(4-Chlorophenoxy)-α-ethynylbenzyl 2,2-dimethyl-3-(2,2,2-trichloroethyl)cyclopropanecarboxylate], in data set [2], the remaining at 3.5 h was 100%, the remaining at 72 h worked out at 78% and the remaining at 120 h is 56%.

As for `C#CC(OC(=O)C1C(CC(Cl)(Cl)Cl)C1(C)C)c1cccc(Oc2ccc(Cl)cc2)c1` (stereo not drawn) [(21), 3-(4-Chlorophenoxy)-α-ethynylbenzyl 2,2-dimethyl-3-(2,2,2-trichloroethyl)cyclopropanecarboxylate], the “mortality (%)” value in data set [5] is listed as “not less than 90%”.

For `CC1(C)[C@H](C(=O)OC(C(N)=S)c2cccc(Oc3ccccc3)c2)[C@@H]1CC(Cl)(Cl)Cl` (stereo partly drawn) [(27) [Cis-isomer], 3-Phenoxy-α-thiocarbamoylbenzyl 2,2-dimethyl-3-(2,2,2-trichloroethyl)cyclopropanecarboxylate], the “TLm (medium tolerance limit)” value in data set [1] was “A (A rank corresponds to TLm of not less than 10 ppm.)”.

In data set [2], `CC1(C)C(CC(Cl)(Cl)Cl)C1C(=O)OCc1coc(Cc2ccccc2)c1` (stereo not shown) [(28) [Mixture], 5-Benzyl-3-furylmethyl 2,2-dimethyl-3-(2,2,2-trichloroethyl)cyclopropanecarboxylate] had a remaining at 3.5 h of 5% and a remaining at 72 h of 0%.

With `CC1(C)C(CC(Cl)(Cl)Cl)C1C(=O)OCc1coc(Cc2ccccc2)c1` (stereo not shown) [(28), 5-Benzyl-3-furylmethyl 2,2-dimethyl-3-(2,2,2-trichloroethyl)cyclopropanecarboxylate], in data set [4] (setting [7]), the “mortality (%)” value was “not less than 90%”.

`CC1(C)C(CC(Cl)(Cl)Cl)C1C(=O)OC(C#N)c1cccc(OC=C(Cl)Cl)c1` (stereo not drawn) [(34) [Mixture], 3-(2,2-dichlorovinyloxy)-α-cyanobenzyl 2,2-dimethyl-3-(2,2,2-trichloroethyl)cyclopropanecarboxylate]: the remaining at 3.5 h in data set [2] (setting [8]) worked out at 100%. Moreover, the remaining at 72 h in data set [2] (setting [9]) came to 88%. Besides, in data set [2] (exposure time 5 days, ultraviolet light 3600 A, 31°-35° C., [Mixture] = cis/trans 50/50, read-out: Residue (%)), the remaining at 120 h came out at 44%.

As for `CC1(C)C(CC(Cl)(Cl)Cl)C1C(=O)OCN1C(=O)C2=C(CCCC2)C1=O` (stereo not shown) [(37) [Mixture], 3,4,5,6-Tetrahydrophthalimidomethyl 2,2-dimethyl-3-(2,2,2-trichloroethyl)cyclopropanecarboxylate], in data set [2], the remaining at 3.5 h amounted to 16% and the remaining at 72 h amounted to 0%.

Consider `C=CCC1=C(C)C(OC(=O)C2C(CC(Cl)(Cl)Cl)C2(C)C)CC1=O` (stereo not shown) [(38) [Mixture], Allethronyl 2,2-dimethyl-3-(2,2,2-trichloroethyl)cyclopropanecarboxylate], for which, in data set [2], the remaining at 3.5 h was found to be 21% and the remaining at 72 h turned out to be 0%.

As to `C=CCC1=C(C)C(OC(=O)C2C(C=C(C)C)C2(C)C)CC1=O` (stereo not shown) [Allethrin, allethrin, reference compound], in data set [2] (setting [8]), the remaining at 3.5 h worked out at 14%. The remaining at 72 h in data set [2] (setting [9]) worked out at 0%.

For `CC(Cl)(Cl)CC1C(C(=O)OCc2cccc(Oc3ccccc3)c2)C1(C)C` (stereo not shown) [Compound (5), 3-Phenoxybenzyl 2,2-dimethyl-3-(2,2-dichloropropyl)cyclopropanecarboxylate], the “mortality (%)” value in data set [4] (setting [6]) and in data set [4] (setting [7]) was “not less than 90%” throughout.

Take `CC(Cl)(Cl)CC1C(C(=O)OC(C#N)c2cccc(Oc3ccccc3)c2)C1(C)C` (stereo not drawn) [Compound (9), 3-Phenoxy-α-cyanobenzyl 2,2-dimethyl-3-(2,2-dichloropropyl)cyclopropanecarboxylate]: the “mortality (%)” value in data set [4] (setting [6]) and in data set [4] (setting [7]) was “not less than 90%” each time.

As for `C#CC(OC(=O)C1C(CC(Br)(Br)Br)C1(C)C)c1cccc(Oc2ccccc2)c1` (stereo not drawn) [Compound (12), 3-Phenoxy-α-ethylnylbenzyl 2,2-dimethyl-3-(2,2,2-tribromoethyl)cyclopropanecarboxylate], the “mortality (%)” value in data set [5] is recorded as “not less than 90%”.
